Our source for the Ki and APTT values is ChEMBL document CHEMBL1131676, “The discovery of orally available thrombin inhibitors: optimisation of the P1 pharmacophore” (Bioorg Med Chem Lett, 1999).

The target of one test is Prothrombin (Homo sapiens, UniProt P00734). Nature of the test: Binding affinity to human thrombin.
Test [1] can be described thus: Effect on doubling of human clotting time assay expressed as Activated partial thromboplastin time value (APTT). Format: functional.

Take `O=C([C@H](Cc1cscn1)NS(=O)(=O)c1cnccc1N[C@H](CO)Cc1ccccc1)N1CCC(CCF)CC1`: at Prothrombin, the affinity corresponds to a Ki of 0.28 µM. In test [1], this molecule gave an APTT of 9.17 µM.

Turning to `O=C([C@@H](NS(=O)(=O)c1cnccc1N[C@H](CO)Cc1ccccc1)C1CCCCC1)N1CCC(CCF)CC1`, the Ki – broadly, a dissociation constant, usually derived from enzyme kinetics or from competition with a known ligand – at Prothrombin was found to be 11.8 µM. As to `Nc1cc(C[C@H](NS(=O)(=O)c2cnccc2N[C@H](CO)Cc2ccccc2)C(=O)N2CCC(CCF)CC2)ccc1O`, the Ki on Prothrombin was 0.026 µM. In test [1], this molecule gave an APTT of 1.53 µM. In turn, `NCCCC[C@H](NS(=O)(=O)c1cnccc1N[C@H](CO)Cc1ccccc1)C(=O)N1CCC(CCF)CC1` showed a Ki at Prothrombin of 1.8 µM. `O=C([C@@H](NS(=O)(=O)c1cnccc1N[C@H](CO)Cc1ccccc1)c1ccncc1)N1CCC(CCF)CC1`: affinity on Prothrombin was put at a Ki of 1.54 µM.

In turn, `CC(C)C[C@H](NS(=O)(=O)c1cnccc1N[C@H](CO)Cc1ccccc1)C(=O)N1CCC(CCF)CC1` registered a Ki at Prothrombin of 11.9 µM. At Prothrombin, `O=C([C@H](Cc1ccc(O)cc1)NS(=O)(=O)c1cnccc1N[C@H](CO)Cc1ccccc1)N1CCC(CCF)CC1` displayed an inhibition constant (Ki) of 0.041 µM. The molecule also had an APTT in test [1] of 1.91 µM. With `O=C([C@H](Cc1ccc(O)c(O)c1)NS(=O)(=O)c1cnccc1N[C@H](CO)Cc1ccccc1)N1CCC(CCF)CC1`, on Prothrombin, the inhibitory constant (Ki) worked out at 0.082 µM. Besides, the APTT in test [1] worked out at 6.17 µM.

`CNc1ccc([C@H](NS(=O)(=O)c2cnccc2N[C@H](CO)Cc2ccccc2)C(=O)N2CCC(CCF)CC2)cc1`: the Ki at Prothrombin was 0.012 µM. In test [1], this molecule returned an APTT of 4.08 µM. Turning to `C[C@H](NS(=O)(=O)c1cnccc1N[C@H](CO)Cc1ccccc1)C(=O)N1CCC(CCF)CC1`, the Ki at Prothrombin came to 49.9 µM. The molecule `CCNc1ccc(C[C@H](NS(=O)(=O)c2cnccc2N[C@H](CO)Cc2ccccc2)C(=O)N2CCC(CCF)CC2)cc1` registered a Ki on Prothrombin of 0.575 µM. Also, in test [1], the APTT was 17.4 µM.

`CC(C)[C@H](NS(=O)(=O)c1cnccc1N[C@H](CO)Cc1ccccc1)C(=O)N1CCC(CCF)CC1` displayed an inhibition constant Ki at Prothrombin of 6.51 µM. That is a single-digit micromolar value. For the molecule `O=C([C@H](Cc1ccc2c(c1)OCO2)NS(=O)(=O)c1cnccc1N[C@H](CO)Cc1ccccc1)N1CCC(CCF)CC1`, the inhibition constant (Ki) on Prothrombin was determined as 0.043 µM. In test [1], this molecule gave an APTT of 6.39 µM.

`COc1ccc(C[C@H](NS(=O)(=O)c2cnccc2N[C@H](CO)Cc2ccccc2)C(=O)N2CCC(CCF)CC2)cc1` returned a Ki on Prothrombin of 0.036 µM. This molecule also returned an APTT in test [1] of 8.013 µM. The molecule `O=C([C@H](Cc1ccccc1)NS(=O)(=O)c1cnccc1N[C@H](CO)Cc1ccccc1)N1CCC(CCF)CC1` had a Ki on Prothrombin of 0.1 µM. The APTT in test [1] turned out to be 11 µM. The corresponding values for `O=C([C@H](Cc1ccc2ccccc2c1)NS(=O)(=O)c1cnccc1N[C@H](CO)Cc1ccccc1)N1CCC(CCF)CC1` are 0.069 µM and 26 µM. Turning to `O=C([C@H](Cc1cccnc1)NS(=O)(=O)c1cnccc1N[C@H](CO)Cc1ccccc1)N1CCC(CCF)CC1`, at Prothrombin, the Ki is 1.61 µM. Also, in test [1], the APTT came out at 20.33 µM. As to `N=C(N)NCC[C@H](NS(=O)(=O)c1cnccc1N[C@H](CO)Cc1ccccc1)C(=O)N1CCC(CCF)CC1`, at Prothrombin, the Ki stood at 0.016 µM. This molecule registered an APTT in test [1] of 0.75 µM.

Molecule `O=C([C@H](Cc1ccccn1)NS(=O)(=O)c1cnccc1N[C@H](CO)Cc1ccccc1)N1CCC(CCF)CC1` displayed a Ki at Prothrombin of 0.081 µM. Besides, in test [1], the APTT was 3.87 µM.
